Among the data in patent US20160052898A1, “NOVEL COMPOUNDS” (BAYER PHARMA AKTIENGESELLSCHAFT, priority 2013, published 2016) are IC50 values, retold here.

A word on the IC50: it is the concentration that gives 50% inhibition.

The subject of test [1] is HCT116 FOP control reporter cell line. Nature of the test: HCT116 FOP control vector reporter assay (non-functional TCF elements). In kind it is cell-based. The following applies: Homo sapiens, HCT-116, 36 h, HCT116 FOP control reporter cells, luciferase expression, 36 hours incubation, 50 μM to 15 nM; read-out: HCT116 FOPFlash IC50. The gist of the method:
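Stable HCT116 line carrying the non-functional FOP luciferase construct, 10000 cells/well plated 24 hrs before. Compounds 50 μM to 15 nM (3.16-fold steps) in CAFTY buffer pH 7.4 with 2 mM Ca2+, 36 hours at 37° C; luciferase luminescence read.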
In general terms: In a reporter assay the amount or activity of a reporter protein is the signal.

Test [2] relates to constitutive active colorectal cancer cell (CRC) Wnt pathway. Kind of test: HCT116 Super TopFlash cellular reporter assay (constitutive active Wnt pathway). In kind it is cell-based. The following applies: Homo sapiens, HCT-116, 36 h, HCT116 TOP reporter cells, luciferase expression, 36 hours incubation, 50 μM to 15 nM. The gist of the method:
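Luciferase luminescence served as the Wnt read-out after 36 h of compound treatment at 37 °C. Compound came from a pre-dilution series (50 μM down to 15 nM, 3.16-fold steps) in CAFTY buffer. Cells were stable HCT116 TOP reporter cells, with matched FOP-vector control cells tested in parallel, seeded a day earlier.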

Where a name gives a salt, the structure may show the parent alone. A value given as a limit tells only on which side of the number the result lay.

For `COc1ccc(NC(=O)c2ccc(-c3ccccc3)cc2)cc1NC(=O)C1(N2CCN(C)CC2)CC1` [Example 163, N-[4-methoxy-3-({[1-(4-methylpiperazin-1-yl)cyclopropyl]carbonyl}amino)phenyl]biphenyl-4-carboxamide hydrochloride (1:1)], the IC50 in test [1] was determined as 12600 nM; in test [2] it was 127 nM.

Consider `COCCOCc1ccc(C(=O)Nc2ccc(-c3ccccc3)cc2)cc1NC(=O)C(C)N1CCOCC1` (stereo not drawn) [Example 164, N-(biphenyl-4-yl)-4-[(2-methoxyethoxy)methyl]-3-{[2-(morpholin-4-yl)propanoyl]amino} benzamide], for which the IC50 was at least 50000 nM in test [1] and 134 nM in test [2].

For the compound `COCc1ccc(C(=O)Nc2ccc(-c3ccccc3)cc2)cc1NC(=O)CN1CCOCC1` [Example 165, N-(biphenyl-4-yl)-4-(methoxymethyl)-3-[(morpholin-4-ylacetyl)amino]benzamide], the IC50 in test [1] was at least 50000 nM; in test [2] it was 135 nM.

Take `COCc1ccc(C(=O)Nc2ccc(-c3ccccc3)cc2)cc1NC(=O)C(C)N1CC2CCC(C1)O2` (stereo not drawn) [Example 170, N-(biphenyl-4-yl)-4-(methoxymethyl)-3-{(2-(8-oxa-3-azabicyclo[3.2.1]oct-3-yl)propanoyl)amino} benzamide]: the IC50 in test [1] came out at 7400 nM; in test [2] it was 178 nM.

In the case of `O=C(Nc1ccc(F)c(NC(=O)C2(N3CCOCC3)CC2)c1)c1ccc(-c2ccccc2)cc1` [Example 171, N-[4-fluoro-3-({[1-(morpholin-4-yl)cyclopropyl]carbonyl}amino)phenyl]biphenyl-4-carboxamide], the IC50 is at least 50000 nM in test [1] and 200 nM in test [2].

With `COC1CCN(CC(=O)Nc2cc(C(=O)Nc3ccc(-c4ccccc4)cc3)ccc2OC2CC2)C1` (stereo not drawn) [Example 174, N-(biphenyl-4-yl)-4-(cyclopropyloxy)-3-{[(3-methoxypyrrolidin-1-yl)acetyl)amino}benzamide], the IC50 in test [1] is at least 50000 nM; in test [2], 215 nM.

For the compound `COCc1ccc(C(=O)Nc2ccc(-c3ccccc3)cc2)cc1NC(=O)CN1C[C@@H]2C[C@H]1CO2` [Example 175, N-(biphenyl-4-yl)-4-(methoxymethyl)-3-{[(1S,4S)-2-oxa-5-azabicyclo[2.2.1]hept-5-ylacetyl)amino}benzamide], the IC50 in test [1] came out at 7300 nM; in test [2], 218 nM.

Regarding `COCCCOCc1ccc(C(=O)Nc2ccc(-c3ccccc3)cc2)cc1NC(=O)CN1CC2CCC(C1)O2` [Example 176, N-(biphenyl-4-yl)-4-[(3-methoxypropoxy)methyl]-3-[(8-oxa-3-azabicyclo[3.2.1]oct-3-ylacetyl)amino]benzamide], the IC50 in test [1] is 3420 nM; in test [2], 260 nM.

Turning to `CC(C(=O)Nc1cc(NC(=O)c2ccc(-c3ccccc3)cc2)ccc1C(F)(F)F)N1CC2CCC(C1)O2` (stereo not drawn) [Example 178, N-[3-{[2-(8-oxa-3-azabicyclo[3.2.1]oct-3-yl)propanoyl]amino}-4-(trifluoromethyl)phenyl) biphenyl-4-carboxamide], the IC50 in test [1] was 47500 nM; in test [2] it was 285 nM.

With `O=C(CN1C[C@H]2C[C@@H]1CO2)Nc1cc(C(=O)Nc2ccc(-c3ccccc3)cc2)ccc1OC1CC1` [Example 181, N-(biphenyl-4-yl)-4-(cyclopropyloxy)-3-{[(1R,4R)-2-oxa-5-azabicyclo[2.2.1]hept-5-ylacetyl]amino}benzamide], the IC50 in test [1] is at least 50000 nM; in test [2] it was 302 nM.

Regarding `O=C(CN1CCOCC1)Nc1cc(NC(=O)c2ccc(-c3ccccc3)cc2)ccc1C(F)(F)F` [Example 183, N-{3-[(morpholin-4-ylacetyl)amino]-4-(trifluoromethyl)phenyl} biphenyl-4-carboxamide], the IC50 in test [1] was at least 50000 nM; in test [2], 344 nM.

Take `O=C(CN1CCOCC1)Nc1cc(C(=O)Nc2ccc(-c3ccccc3)cc2)ccc1OC(F)F` [Example 184, N-(biphenyl-4-yl)-4-(difluoromethoxy)-3-[(morpholin-4-ylacetyl)amino]benzamide]: the IC50 is at least 50000 nM in test [1] and 346 nM in test [2].
